Results from patent US20100279990A1, “ANTIPROLIFERATIVE COMPOUNDS, COMPOSITIONS AND METHODS OF USE” (RAMOT AT TEL-AVIV UNIVERSITY LTD., priority 2006, published 2010).

Key:
PRXF LNCAP = test: Monolayer Assay, PI: PRXF LNCAP (Prostate); assay type: cell-based, human
Source text: (§1) This example illustrates cell proliferation data in the form of IC50, IC70 and IC90 values obtained by exposure of human cancer cell-lines to compound (Ia). […].

PAXF 1657L = test: Monolayer Assay, PI: PAXF 1657L; assay type: cell-based, human
Source text: as §1

In the case of `CN[C@H]1CC[C@@H](c2ccc(Cl)c(Cl)c2)c2ccc(C#CCCCO)cc21` [compound (Ia), (1S-cis)-4-(3,4-dichlorophenyl)-7-(5-hydroxy-1-pentyn-1-yl)-1,2,3,4-tetrahydro-N-methyl-1-naphthalenamine hydroiodide], the “Test/Control (%)” value (PRXF LNCAP; 2.3 μg/ml) is reported as 56%, the Test/Control activity class (PRXF LNCAP; 2.3 μg/ml) is reported as “− (− (T/C = 50))” and the “Test/Control (%)” value (PRXF LNCAP; 7.5 μg/ml) is reported as 4%. The Test/Control activity class (PRXF LNCAP; 7.5 μg/ml) was “+++ (+++ (T/C < 10))”, the “Test/Control (%)” value (PRXF LNCAP; 23. μg/ml) was 3% and the Test/Control activity class (PRXF LNCAP; 23. μg/ml) was “+++ (+++ (T/C < 10))”. The “Test/Control (%)” value (PRXF LNCAP; 75. μg/ml) was 3%, the Test/Control activity class (PRXF LNCAP; 75. μg/ml) was “+++ (+++ (T/C < 10))” and the “Test/Control (%)” value (PRXF LNCAP; .75 μg/ml) was 78%. The Test/Control activity class (PRXF LNCAP; .75 μg/ml) was “− (− (T/C = 50))”, the “Test/Control (%)” value (PAXF 1657L; 2.3 μg/ml) was 92% and the Test/Control activity class (PAXF 1657L; 2.3 μg/ml) was “− (− (T/C = 50))”. For the same compound, the “Test/Control (%)” value (PAXF 1657L; 7.5 μg/ml) was 40%, the Test/Control activity class (PAXF 1657L; 7.5 μg/ml) was “+ (+ (30 <= T/C < 50))” and the “Test/Control (%)” value (PAXF 1657L; 23. μg/ml) was 6%. For the same compound, the Test/Control activity class (PAXF 1657L; 23. μg/ml) was “+++ (+++ (T/C < 10))”, the “Test/Control (%)” value (PAXF 1657L; 75. μg/ml) was 5% and the Test/Control activity class (PAXF 1657L; 75. μg/ml) was “+++ (+++ (T/C < 10))”. The “Test/Control (%)” value (PAXF 1657L; .75 μg/ml) was 96% and the Test/Control activity class (PAXF 1657L; .75 μg/ml) was “− (− (T/C = 50))”.
